Experimental data as given in patent EP0942911B1, “BENZOPYRANOPYRROLE AND BENZOPYRANOPYRIDINE ALPHA-1 ADRENERGIC COMPOUNDS” (Abbott Laboratories, priority 1996, dated 1998).
Where a name gives a salt, the structure may show the parent alone.

Key:
Test in all cases: biochemical
α-1b adrenoreceptor = biological target: T1, α-1b adrenoreceptor (Mesocricetus auratus, UniProt P18841); type: binding, hamster; conditions: [3H]-prazosin radioligand; cloned receptor in LTK cell membranes; read-out: Radioligand Binding (Ki, nM) 1b (Hamster)
T1 sequence (P18841 1-515): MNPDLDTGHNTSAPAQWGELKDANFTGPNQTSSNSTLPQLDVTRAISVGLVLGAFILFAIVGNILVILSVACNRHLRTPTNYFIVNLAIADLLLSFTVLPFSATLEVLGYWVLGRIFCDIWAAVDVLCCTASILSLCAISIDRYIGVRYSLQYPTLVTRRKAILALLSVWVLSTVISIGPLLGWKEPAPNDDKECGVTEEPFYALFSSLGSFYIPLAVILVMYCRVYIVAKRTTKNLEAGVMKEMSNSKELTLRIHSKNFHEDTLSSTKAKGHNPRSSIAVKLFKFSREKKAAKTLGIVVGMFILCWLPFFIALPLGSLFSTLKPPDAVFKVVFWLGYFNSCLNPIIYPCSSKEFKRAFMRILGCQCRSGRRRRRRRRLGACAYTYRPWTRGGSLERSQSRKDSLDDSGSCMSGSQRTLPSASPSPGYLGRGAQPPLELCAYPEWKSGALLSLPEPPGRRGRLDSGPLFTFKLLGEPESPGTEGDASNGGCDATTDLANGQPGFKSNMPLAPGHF
Outline: (§1)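 LTK mouse fibroblasts stably transfected with α-1a, α-1b or α-1d cDNA → roller-bottle culture 5 days at 37 °C → membranes in 50 mM Tris-HCl, stored at -70 °C → radioligand binding → scintillation counting.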

α-1a adrenoreceptor = biological target: T2, α-1a adrenoreceptor (Bos taurus, UniProt P18130); type: binding, bovine; conditions: [3H]-prazosin radioligand; cloned receptor in LTK cell membranes; read-out: Radioligand Binding (Ki, nM) 1a (Bovine)
T2 sequence (P18130 1-466): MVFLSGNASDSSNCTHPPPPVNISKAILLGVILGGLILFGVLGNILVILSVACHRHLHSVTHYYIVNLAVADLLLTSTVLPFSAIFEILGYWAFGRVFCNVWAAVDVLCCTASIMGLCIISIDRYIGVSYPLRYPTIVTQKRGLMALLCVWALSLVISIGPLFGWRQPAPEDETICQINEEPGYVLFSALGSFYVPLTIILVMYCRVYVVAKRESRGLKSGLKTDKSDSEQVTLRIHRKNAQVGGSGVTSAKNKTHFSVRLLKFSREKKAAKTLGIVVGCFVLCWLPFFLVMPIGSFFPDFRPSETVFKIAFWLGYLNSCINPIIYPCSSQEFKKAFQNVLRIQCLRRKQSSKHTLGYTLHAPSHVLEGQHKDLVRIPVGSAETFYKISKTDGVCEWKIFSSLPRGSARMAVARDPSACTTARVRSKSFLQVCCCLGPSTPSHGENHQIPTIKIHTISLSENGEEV
Outline: as §1

α-1d adrenoreceptor = biological target: T3, α-1d adrenoreceptor (Rattus norvegicus, UniProt P23944); type: binding; conditions: [3H]-prazosin radioligand; cloned receptor in LTK cell membranes; read-out: Radioligand Binding (Ki, nM) 1d (Rat)
T3 sequence (P23944 1-561): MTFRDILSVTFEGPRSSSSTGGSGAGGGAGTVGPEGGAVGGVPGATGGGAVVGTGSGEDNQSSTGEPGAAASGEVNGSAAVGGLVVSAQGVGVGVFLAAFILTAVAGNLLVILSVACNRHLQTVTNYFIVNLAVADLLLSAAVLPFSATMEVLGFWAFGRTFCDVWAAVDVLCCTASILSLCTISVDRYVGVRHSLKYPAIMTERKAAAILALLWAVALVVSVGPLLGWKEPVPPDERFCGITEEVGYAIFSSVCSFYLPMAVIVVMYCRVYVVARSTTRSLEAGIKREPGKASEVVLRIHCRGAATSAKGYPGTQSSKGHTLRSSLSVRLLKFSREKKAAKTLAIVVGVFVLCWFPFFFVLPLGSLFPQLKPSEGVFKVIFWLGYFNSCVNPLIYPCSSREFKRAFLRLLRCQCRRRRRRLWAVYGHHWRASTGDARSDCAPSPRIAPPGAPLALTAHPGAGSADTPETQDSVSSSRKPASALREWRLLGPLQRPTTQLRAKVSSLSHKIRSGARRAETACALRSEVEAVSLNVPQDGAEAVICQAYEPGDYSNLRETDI
Outline: as §1

[1] = biological target: T4, α-1A adrenoreceptor (rat submaxillary gland) (Rattus norvegicus, UniProt P43140); type: binding; conditions: [3H]-prazosin radioligand; rat submaxillary gland membranes; read-out: Radioligand Binding (Ki, nM) 1A (Rat)
T4 sequence (P43140 1-466): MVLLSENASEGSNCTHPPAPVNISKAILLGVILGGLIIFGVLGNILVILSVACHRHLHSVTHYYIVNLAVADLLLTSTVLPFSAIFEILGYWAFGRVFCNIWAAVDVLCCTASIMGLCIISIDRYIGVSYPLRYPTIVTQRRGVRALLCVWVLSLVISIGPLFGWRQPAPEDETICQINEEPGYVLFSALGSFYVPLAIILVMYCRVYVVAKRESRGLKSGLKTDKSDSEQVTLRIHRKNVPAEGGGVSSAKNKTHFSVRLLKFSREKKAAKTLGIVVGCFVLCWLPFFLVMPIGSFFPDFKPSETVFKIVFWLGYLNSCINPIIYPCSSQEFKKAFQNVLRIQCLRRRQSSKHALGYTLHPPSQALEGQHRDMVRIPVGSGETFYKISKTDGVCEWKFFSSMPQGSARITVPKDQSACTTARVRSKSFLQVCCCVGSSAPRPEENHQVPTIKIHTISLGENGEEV
Outline: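 Radioligand binding to α-1A sites in membrane homogenates of rat submaxillary gland, run after Greengrass and Bremner. Bound radioactivity counted by liquid scintillation.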

**Q.** Which results are given for `COc1cccc2c1[C@@H]1CN(CCCCn3c(=O)[nH]c4c(sc5ncc(-c6cccnc6)nc54)c3=O)C[C@@H]1CO2` [Example 61, 3-[4-((3aR,9bR)-cis-9-Methoxy-1,2,3,3a,4,9b-hexahydro-[1]-benzopyrano[3,4-c]pyrrol-2-yl)butyl]-8-(3-pyridyl)-pyrazino[2',3':4,5]thieno[3,2-d]pyrimidine-2,4(1H,3H)-dione dihydrochloride]?
**A.** Ki (α-1b adrenoreceptor): 8.85 nM; Ki (α-1a adrenoreceptor): 0.15 nM; Ki (α-1d adrenoreceptor): 0.336 nM; Ki [1]: 0.152 nM

**Q.** Which Ki (α-1b adrenoreceptor) does the source give for `COc1cccc2c1[C@@H]1CN(CCCCn3c(=O)[nH]c4c(sc5ncc(-c6ccoc6)nc54)c3=O)C[C@@H]1CO2` [Example 62, 3-[4-((3aR,9bR)-cis-9-Methoxy-1,2,3,3a,4,9b-hexahydro-[1]-benzopyrano[3,4-c]pyrrol-2-yl)butyl]-8-(3-furyl)-pyrazino[2',3':4,5]thieno[3,2-d]pyrimidine-2,4(1H,3H)-dione dihydrochloride] here?
**A.** Its Ki is 1150 nM.

**Q.** And the Ki (α-1a adrenoreceptor)?
**A.** The Ki was 52 nM.

**Q.** What about the Ki (α-1d adrenoreceptor) of the same compound?
**A.** The Ki was 411 nM.

**Q.** What about the Ki [1] of the same compound?
**A.** The Ki was 983 nM.

**Q.** Which Ki (α-1b adrenoreceptor) does the source give for `COc1cccc2c1[C@@H]1CCN(CCCn3c(=O)[nH]c4c(sc5cccnc54)c3=O)C[C@H]1CO2` [Example 92, 3-[3-((4aS,10bR)-trans-10-Methoxy-1,3,4,4a,5,10b-hexahydro-2H-[1]-benzopyrano[3,4-c]pyrido-3-yl)propyl]-pyrido[2',3':4,5]thieno[3,2-d]pyrimidine-2,4(1H,3H)-dione dihydrochloride] here?
**A.** The Ki was 45.1 nM.

**Q.** What about the Ki (α-1a adrenoreceptor) of the same compound?
**A.** Its Ki is 2.2 nM.

**Q.** And the Ki (α-1d adrenoreceptor)?
**A.** Its Ki is 18.5 nM.

**Q.** And the Ki [1]?
**A.** Its Ki is 3.85 nM.

**Q.** Which results are given for `COc1cccc2c1[C@H]1CCN(CCCn3c(=O)[nH]c4c(sc5cccnc54)c3=O)C[C@@H]1CO2` [Example 93, 3-[3-((4aR,10bS)-trans-10-Methoxy-1,3,4,4a,5,10b-hexahydro-2H-[1]-benzopyrano[3,4-c]pyrido-3-yl)propyl]-pyrido[2',3':4,5]thieno[3,2-d]pyrimidine-2,4(1H,3H)-dione dihydrochloride]?
**A.** Ki (α-1b adrenoreceptor): 3.67 nM; Ki (α-1a adrenoreceptor): 1.2 nM; Ki (α-1d adrenoreceptor): 11.5 nM; Ki [1]: 4.04 nM

**Q.** For `COc1cccc2c1[C@H]1CCN(CCCCn3c(=O)[nH]c4c(sc5cccnc54)c3=O)C[C@@H]1CO2` [Example 94, 3-[4-((4aR,10bS)-trans-10-Methoxy-1,3,4,4a,5,10b-hexahydro-2H-[1]-benzopyrano[3,4-c]pyrido-3-yl)butyl]-pyrido[2',3':4,5]thieno[3,2-d]pyrimidine-2,4(1H,3H)-dione dihydrochloride], which Ki (α-1b adrenoreceptor) is on record?
**A.** The Ki was 1.97 nM.

**Q.** What about the Ki (α-1a adrenoreceptor) of the same compound?
**A.** The Ki was 0.097 nM.

**Q.** And the Ki (α-1d adrenoreceptor)?
**A.** The Ki was 0.361 nM.

**Q.** What about the Ki [1] of the same compound?
**A.** Its Ki is 0.185 nM.

**Q.** `COc1cccc2c1[C@H]1CCN(CCCCn3c(=O)[nH]c4c(sc5ncc(Cl)nc54)c3=O)C[C@@H]1CO2` [Example 96, 3-[4-((4aR,10bS)-trans-10-Methoxy-1,3,4,4a,5,10b-hexahydro-2H-[1]-benzopyrano[3,4-c]pyrido-3-yl)butyl]-8-chloro-pyrazino[2',3':4,5]thieno[3,2-d]pyrimidine-2,4(1H,3H)-dione dihydrochloride] was tested. Which Ki (α-1b adrenoreceptor) did it give?
**A.** The Ki was 10.4 nM.

**Q.** What about the Ki (α-1a adrenoreceptor) of the same compound?
**A.** The Ki was 0.211 nM.

**Q.** What about the Ki (α-1d adrenoreceptor) of the same compound?
**A.** The Ki was 0.816 nM.

**Q.** What about the Ki [1] of the same compound?
**A.** Its Ki is 0.816 nM.

**Q.** `COc1ccc2sc3c(=O)n(CCCCN4CC[C@H]5c6c(OC)cccc6OC[C@@H]5C4)c(=O)[nH]c3c2n1` [Example 98, 3-[4-((4aS,10bR)-trans-10-Methoxy-1,3,4,4a,5,10b-hexahydro-2H-[1]-benzopyrano[3,4-c]pyrido-3-yl)butyl]-8-methoxy-pyrido[2',3':4,5]thieno[3,2-d]pyrimidine-2,4(1H,3H)-dione hydrochloride] was tested. Which Ki (α-1b adrenoreceptor) did it give?
**A.** The Ki was 2.65 nM.

**Q.** What about the Ki (α-1a adrenoreceptor) of the same compound?
**A.** Its Ki is 0.121 nM.

**Q.** What about the Ki (α-1d adrenoreceptor) of the same compound?
**A.** The Ki was 0.324 nM.

**Q.** And the Ki [1]?
**A.** The Ki was 1.02 nM.

**Q.** Which results are given for `COc1cnc2sc3c(=O)n(CCCCN4CC[C@H]5c6c(OC)cccc6OC[C@@H]5C4)c(=O)[nH]c3c2n1` [Example 99, 3-[4-((4aS,10bR)-trans-10-Methoxy-1,3,4,4a,5,10b-hexahydro-2H-[1]-benzopyrano[3,4-c]pyrido-3-yl)butyl]-8-methoxy-pyrazino[2',3':4,5]thieno[3,2-d]pyrimidine-2,4(1H,3H)-dione hydrochloride]?
**A.** Ki (α-1b adrenoreceptor): 57.1 nM; Ki (α-1a adrenoreceptor): 1.73 nM; Ki (α-1d adrenoreceptor): 5.81 nM; Ki [1]: 14.9 nM

**Q.** With `COc1cccc2c1[C@@H]1CCN(CCCCn3c(=O)[nH]c4c(sc5ncc(-c6ccccc6)nc54)c3=O)C[C@H]1CO2` [Example 100, 3-[4-((4aS,10bR)-trans-10-Methoxy-1,3,4,4a,5,10b-hexahydro-2H-[1]-benzopyrano[3,4-c]pyrido-3-yl)butyl]-8-phenyl-pyrazino[2',3':4,5]thieno[3,2-d]pyrimidine-2,4(1H,3H)-dione hydrochloride] as the compound, how does the Ki (α-1b adrenoreceptor) read?
**A.** The Ki was 27 nM.

**Q.** What about the Ki (α-1a adrenoreceptor) of the same compound?
**A.** Its Ki is 5.83 nM.

**Q.** And the Ki (α-1d adrenoreceptor)?
**A.** The Ki was 7.59 nM.

**Q.** And the Ki [1]?
**A.** Its Ki is 30.5 nM.

**Q.** `COc1cccc2c1[C@@H]1CCN(CCCCn3c(=O)[nH]c4c(sc5ccc(-c6ccccc6)nc54)c3=O)C[C@H]1CO2` [Example 101, 3-[4-((4aS,10bR)-trans-10-Methoxy-1,3,4,4a,5,10b-hexahydro-2H-[1]-benzopyrano[3,4-c]pyrido-3-yl)butyl]-8-phenyl-pyrido[2',3':4,5]thieno[3,2-d]pyrimidine-2,4(1H,3H)-dione dihydrochloride] was tested. Which Ki (α-1b adrenoreceptor) did it give?
**A.** Its Ki is 8.41 nM.

**Q.** And the Ki (α-1a adrenoreceptor)?
**A.** The Ki was 0.063 nM.

**Q.** And the Ki (α-1d adrenoreceptor)?
**A.** Its Ki is 0.597 nM.

**Q.** And the Ki [1]?
**A.** Its Ki is 1.27 nM.

**Q.** What does the source list for `COc1cccc2c1[C@@H]1CCN(CCCCn3c(=O)[nH]c4c(sc5nc(Cl)ccc54)c3=O)C[C@H]1CO2` [Example 102, 3-[4-((4aS,10bR)-trans-10-Methoxy-1,3,4,4a,5,10b-hexahydro-2H-[1]-benzopyrano[3,4-c]pyrido-3-yl)butyl]-7-chloro-pyrido[3',2':4,5]thieno[3,2-d]pyrimidine-2,4(1H,3H)-dione hydrochloride]?
**A.** Ki (α-1b adrenoreceptor): 6.26 nM; Ki (α-1a adrenoreceptor): 0.113 nM; Ki (α-1d adrenoreceptor): 0.651 nM; Ki [1]: 1.89 nM

**Q.** Which Ki (α-1b adrenoreceptor) does the source give for `COc1ccc2c(n1)sc1c(=O)n(CCCCN3CC[C@H]4c5c(OC)cccc5OC[C@@H]4C3)c(=O)[nH]c12` [Example 103, 3-[4-((4aS,10bR)-trans-10-Methoxy-1,3,4,4a,5,10b-hexahydro-2H-[1]-benzopyrano[3,4-c]pyrido-3-yl)butyl]-7-methoxy-pyrido[3',2':4,5]thieno[3,2-d]pyrimidine-2,4(1H,3H)-dione hydrochloride] here?
**A.** Its Ki is 3.33 nM.

**Q.** What about the Ki (α-1a adrenoreceptor) of the same compound?
**A.** Its Ki is 0.115 nM.

**Q.** What about the Ki (α-1d adrenoreceptor) of the same compound?
**A.** The Ki was 0.243 nM.

**Q.** What about the Ki [1] of the same compound?
**A.** Its Ki is 0.909 nM.
